Assay results published in article PMC11173533, “Baicalin and Baicalein Enhance Cytotoxicity, Proapoptotic Activity, and Genotoxicity of Doxorubicin and Docetaxel in MCF-7 Breast Cancer Cells” (Molecules, 2024).

Experiments:
[1] = system: MCF-7 cell; design: method as in Wang et al. [49]; conditions: 5–100 µmol/L for 72 h; ref Wang et al. [49]; cited from earlier work
[2] = system: HUVEC-ST cells; test: Annexin V FITC/propidium iodide double staining in HUVEC-ST cells; assay type: cell-based, human
Description: (§1) Unless otherwise indicated, in experiments, cells were seeded at an appropriate density for the specific assay into 96-well plates or Petri dishes. They were then incubated in standard culture conditions, which included a temperature of 37 °C, 100% relative humidity, and a 5% CO2 incubator. […] After treatment, the cells were washed with PBS and, depending on the experiment, immediately used for measurement or cultured in a fresh medium for 24 or 48 h. Control cells were treated with a corresponding volume of PBS. Additional controls for solvents were also performed.
This assay is based on the principle that, in viable cells, phosphatidylserine (PS) is located in the inner membrane (side facing the cytoplasm). However, upon induction of apoptosis, PS is translocated to the outer membrane (PS also appears on the necrotic cell surface). The exposed phosphatidylserine can be detected by protein Annexin V stained with FITC dye. The addition of propidium iodide (PI) enabled necrotic cells to be distinguished. Thus, this method is convenient for counting and differentiating live cells from those undergoing apoptosis or necrosis.
The analysis was performed according to the manufacturer’s protocol on cells immediately after the treatment and 24 or 48 h postincubation. Samples were analyzed using the flow cytometer LSR® II from Becton Dickinson (San Jose, CA, USA) using an argon laser with a wavelength of λ = 488 nm.

[3] = system: cleaved PARP in MCF-7 cells; test: Cleaved PARP In-Cell ELISA in MCF-7 cells; assay type: cell-based, human; conditions: docetaxel + flavonoid IC50, most intense of all times and combinations
Description: as §1
(§2) The expression of the protein was monitored using a target-specific primary antibody against an 85 kDa stable fragment of PARP proteolysis and a horseradish peroxidase-conjugated detection reagent.
(§3) The amount of cleaved PARP was measured in cells according to the manufacturer’s protocol immediately after the treatment and after 24 or 48 h postincubation. The absorbance was measured at a wavelength of λ = 450. Additionally, the whole cell staining was performed with Janus Green dye, and the absorbance was measured at a wavelength of λ = 615. […] Subsequently, the values were calculated as a fold increase, which means the ratio of an increased amount of cleaved PARP to the amount of cleaved PARP in control cells.

[4] = system: HUVEC-ST cells; test: Alkaline comet assay in HUVEC-ST cells; assay type: cell-based, human; conditions: doxorubicin IC50 + flavonoid IC50 preincubation, longest postincubation time (48 h)
Description: as §1
(§4) The comet assay, also known as the single-cell gel electrophoresis assay, is a highly sensitive and versatile method for measuring single- and double-stranded DNA breaks. The assay uses an electric field to move negatively charged DNA fragments through an agarose gel. The amount of migration reflects the level of DNA damage in the cells.
The analysis was performed under alkaline conditions, according to the method of Singh et al., on cells immediately after the treatment and 24 or 48 h postincubation. A suspension of cells was mixed with low-melting-point agarose (LMP type XI) and spread onto a microscope glass slide previously coated with standard melting point agarose (NMP type I). After 2 h of cells lysis in a buffer containing (2.5 mol/L NaCl, 100 mmol/L Na2-EDTA, 10 mmol/L TRIS, 1% Triton X-100), DNA unwinding and electrophoresis were carried out in a buffer containing (1 mmol/L Na2-EDTA, 300 mmol/L NaOH) and (29 V, 30 mA). Before analysis, the slides were stained with DAPI solution (2 μg/mL). One hundred randomly chosen cells were analyzed on each slide using a fluorescence microscope Zeiss Axio Scope A1 (Carl Zeiss, Oberkochen, Germany) with a video camera connected to the image-analysis system Lucia-Comet v. 7.60 (Laboratory Imaging, Praha, Czech Republic).

[5] = system: HUVEC-ST cells; test: Cytometric measurement of doxorubicin accumulation in HUVEC-ST cells; assay type: cell-based, human; conditions: 22 h preincubation with flavonoid IC50, 1 h study period
Description: The aromatic rings in the hydrophobic part of doxorubicin give the drug molecule fluorescent properties (λex = 490 nm, λem = 590 nm). Thus, the flow cytometric measurement of drug fluorescence inside the cells allows for the monitoring of its transport rate through the cell membrane. The increase in the intensity of drug fluorescence inside the cells is highly correlated with its accumulation.
The DOX was added to the cell suspension to achieve a final concentration equal to the IC50 value. During one hour of incubation (temp 37 °C) with the drug, samples for cytometric measurement were taken from the cell suspension after the first 5 min and then after every 10 min. Samples were analyzed using the flow cytometer LSR® II from Becton Dickinson (San Jose, CA, USA) using an argon laser with a wavelength of λ = 488 nm. Doxorubicin fluorescence intensity was calculated per single cell.

[6] = system: HUVEC-ST cells; test: Mitochondrial membrane potential (JC-1) in HUVEC-ST cells; assay type: cell-based, human
Description: as §1
The mitochondrial membrane potential was measured with the membrane-permeant JC-1 fluorescent probe. […] Thus, the measurement of the ratio of JC-1 dimer to monomer fluorescence can be used for estimating changes in mitochondrial membrane potential (ΔΨm).
The cells were then incubated in complete darkness for 30 min at 37 °C. After incubation, the cells were washed to remove the dye and suspended in fresh HBSS solution. Finally, the fluorescence intensity was measured using a Cary Eclipse spectrofluorometer (Varian, Inc.) at λex/em = 475 nm/530 nm for monomers and at λex/em = 535 nm/590 nm for dimers. Subsequently, the ratio of the fluorescence intensities at 530 nm/590 nm was calculated. The mitochondrial potential in both cell lines was measured immediately after incubation with investigated compounds. The results are expressed as a percentage of the control, considered 100%.

[7] = system: MCF-7 cells; test: Alkaline comet assay in MCF-7 cells; assay type: cell-based, human
Description: as §1, §4
The analysis was performed under alkaline conditions, according to the method of Singh et al., on cells immediately after the treatment and 24 or 48 h postincubation. […] One hundred randomly chosen cells were analyzed on each slide using a fluorescence microscope Zeiss Axio Scope A1 (Carl Zeiss, Oberkochen, Germany) with a video camera connected to the image-analysis system Lucia-Comet v. […]

[8] = system: MRP1; design: method as in PMID 15670588; conditions: 25 µmol/L; ref [65]; cited from earlier work
[9] = system: cleaved PARP in HUVEC-ST cells; test: Cleaved PARP In-Cell ELISA in HUVEC-ST cells; assay type: cell-based, human
Description: as §1, §2, §3

[10] = system: MRP2; design: method as in PMID 15670588; conditions: 25 µmol/L; ref [65]; cited from earlier work
[11] = system: MCF-7 cell; design: method as in Liu et al. [48]; conditions: ref Liu et al. [48]; read-out: IC50, MCF-7 cell growth inhibition; cited from earlier work
[12] = flavonoid alone (high concentration), 48 h after incubation
[13] = flavonoid IC50 alone 24 h, control = 100%
[14] = docetaxel IC50 + flavonoid IC50, 24 h after incubation

SMILES	Inhibitory effect on MCF-7 cell proliferation [1]	Viable cells ([2]; doxorubicin IC50 + lower concentration (IC10) of flavonoid, longest postincubation time (48 h))	AV+/PI+ cells [2, 12]	AV+/PI− cells [2, 12]	PARP cleavage, fold increase to control [3]	DNA in the comet tail [4]	Enhancement of doxorubicin accumulation/influx [5]	Mitochondrial membrane potential ΔΨm, % of control [6, 13]	DNA in the comet tail [7, 14]	DNA in the comet tail ([7]; docetaxel IC50 + flavonoid IC50, immediately after incubation)	AV+/PI+ cells [2, 14]	Change in percentage of AV+/PI− or AV+/PI+ cells vs doxorubicin alone ([2]; doxorubicin IC50 + flavonoid IC50, 24 h after incubation)	Inhibition of MRP1 protein activity [8]	Amount of cleaved PARP relative to control cells ([9]; doxorubicin + flavonoid IC50, 48 h after incubation)	Amount of cleaved PARP relative to control cells ([9]; flavonoid IC50 alone, 24 and 48 h after incubation)	Mitochondrial membrane potential ΔΨm, % of control ([6]; doxorubicin IC50 after 22 h preincubation with flavonoid IC50)	Mitochondrial membrane potential ΔΨm ([6]; doxorubicin IC50 after preincubation with flavonoid in low concentration (IC10))	Inhibition of MRP2 protein activity [10]	IC50 [11]
O=C(O)[C@H]1O[C@@H](Oc2cc3oc(-c4ccccc4)cc(=O)c3c(O)c2O)[C@H](O)[C@@H](O)[C@@H]1O [baicalin, baicalein 7-O-β-D-glucuronide]	did not observe any inhibitory effect	55%	30%	19%	2.5 fold	3%	observed only during the first 30 min of the study	72%											
O=c1cc(-c2ccccc2)oc2cc(O)c(O)c(O)c12 [baicalein, 5,6,7-Trihydroxyflavone]				10%		5%	increased doxorubicin accumulation was maintained for the whole study period	59%	16%	19%	44%	increased almost two-fold	inhibit the activity of MRP2 and MRP1 proteins	twice higher than in control cells	nearly two times higher than in control cells	33%	increasing ΔΨm to the level of control	inhibit the activity of MRP2 and MRP1 proteins	85.1 ± 1.26 µM
